We go through 8 compounds from ChEMBL document CHEMBL1255522, “Novel amides and esters prodrugs of olmesartan: Synthesis, bioconversion, and pharmacokinetic evaluation” (Bioorg Med Chem Lett, 2010).

The data set in a line: Stability in Sprague-Dawley rat plasma assessed as compound remaining at 50 mg/ml after 30 mins. It is filed as ADME, cell-free. Particulars: read-out: Stability.
Turning to `CCCc1nc(C(C)(C)O)c(C(=O)NCCCCCC[N+](=O)[O-])n1Cc1ccc(-c2ccccc2C2=NNNN2)cc1`, the remaining at 0.5 h was found to be 101%.

On to `CCCc1nc(C(C)(C)O)c(C(=O)NCCCCCCC(=O)O)n1Cc1ccc(-c2ccccc2C2=NNNN2)cc1`, for which the remaining at 0.5 h stood at 97.5%.

With `CCCc1nc(C(C)(C)O)c(C(=O)OCc2c[nH]c(=O)[nH]c2=O)n1Cc1ccc(-c2ccccc2C2=NNNN2)cc1`, the remaining at 0.5 h turned out to be 96.3%.

With `CCCc1nc(C(C)(C)O)c(C(=O)OCCCCCC[N+](=O)[O-])n1Cc1ccc(-c2ccccc2C2=NNNN2)cc1`, the remaining at 0.5 h stood at 100%.

Take `CCCc1nc(C(C)(C)O)c(C(=O)OCCCCCCC(=O)OCC)n1Cc1ccc(-c2ccccc2C2=NNNN2)cc1`: the remaining at 0.5 h turned out to be 81.1%.

`CCCc1nc(C(C)(C)O)c(C(=O)OCCCCCCC(=O)O)n1Cc1ccc(-c2ccccc2C2=NNNN2)cc1`: the remaining at 0.5 h was 98.8%.

Take `CCCc1nc(C(C)(C)O)c(C(=O)NCCNCCO)n1Cc1ccc(-c2ccccc2C2=NNNN2)cc1`: the remaining at 0.5 h was found to be 98.9%.

As to `CCCCCCCCOC(=O)c1c(C(C)(C)O)nc(CCC)n1Cc1ccc(-c2ccccc2C2=NNNN2)cc1`, the remaining at 0.5 h was 90.2%.
